Here are results for 30 compounds from US7973061B2, “Anaplastic lymphoma kinase modulators and methods of use” (Exelixis, Inc., priority 2004, dated 2011).

Where only a bound is given, the exact number is not on record here.

The target in the assay is T1, ALK (baculovirus expressed human ALK kinase domain F1098-K1410) (Homo sapiens, UniProt Q9UM73).
T1 construct: human ALK kinase domain F1098-K1410; made in house
The assay can be described thus: biochemical. Particulars: 1 μM ATP, 4 μM poly-AEKY, 12 nM ALK, 2 hours at ambient temperature; read-out: ALK IC50. In outline: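 Inhibitors were tested at 10 concentrations, and IC50 was derived from a sigmoidal fit (Min, Max, Hill slope). Kinase activity was measured as percent ATP left after a 2 h reaction at room temperature, detected by luciferase-luciferin chemiluminescence. The ATP level was set close to KM for the ALK kinase domain F1098-K1410.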

T1 sequence (Q9UM73 1098-1410): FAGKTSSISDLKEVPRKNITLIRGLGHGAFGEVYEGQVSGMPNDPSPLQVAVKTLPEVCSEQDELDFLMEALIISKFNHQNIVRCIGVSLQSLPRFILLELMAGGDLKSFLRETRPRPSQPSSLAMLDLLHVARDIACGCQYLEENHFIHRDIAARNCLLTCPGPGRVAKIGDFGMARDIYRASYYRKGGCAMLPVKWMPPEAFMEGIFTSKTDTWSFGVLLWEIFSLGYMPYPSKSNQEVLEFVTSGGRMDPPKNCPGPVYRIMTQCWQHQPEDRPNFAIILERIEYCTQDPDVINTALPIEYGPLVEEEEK

Broadly, the IC50 is the concentration that inhibits the measured activity by half. Consider `CC(NC(=O)COc1ccc(OC(F)(F)F)cc1)c1nc(C(=O)NCCc2cccc(Cl)c2)cs1` (stereo not drawn) [Entry 1, N-[2-(3-chlorophenyl)ethyl]-2-(1-{[({4-[(trifluoromethyl)oxy]phenyl}oxy)acetyl]amino}ethyl)-1,3-thiazole-4-carboxamide], for which the half-inhibitory concentration (IC50) is below 50 nM.
As for `O=C(COc1ccc(OC(F)(F)F)cc1)NCc1nc(C(=O)NCc2ccc(F)cc2)co1` [Entry 292, N-[(4-fluorophenyl)methyl]-2-({[({4-[(trifluoromethyl)oxy]phenyl}oxy)acetyl]amino}methyl)-1,3-oxazole-4-carboxamide], the figure is 500 to 2000 nM; as for `Cc1ccccc1CNC(=O)c1csc(CNC(=O)COc2ccc(OC(F)(F)F)cc2)n1` [Entry 98, N-[(2-methylphenyl)methyl]-2-({[({4-[(trifluoromethyl)oxy]phenyl}oxy)acetyl]amino}methyl)-1,3-thiazole-4-carboxamide], 50 to 500 nM.
Next, `O=C(C/C=C/c1ccccc1)NCc1nc(C(=O)NCCc2ccccc2F)cs1` [Entry 276, N-[2-(2-fluorophenyl)ethyl]-2-({[(3E)-4-phenylbut-3-enoyl]amino}methyl)-1,3-thiazole-4-carboxamide]: 500 to 2000 nM.
Turning to `CSc1ccc(NC(=O)NCc2nc(C(=O)NCCc3cccc(Cl)c3)cs2)cc1` [Entry 173, N-[2-(3-chlorophenyl)ethyl]-2-{[({[4-(methylthio)phenyl]amino}carbonyl)amino]methyl}-1,3-thiazole-4-carboxamide], the IC50 is 50 to 500 nM.
As for `Cc1ccc(C)c(CCNC(=O)c2csc(CNC(=O)COc3ccc(OC(F)(F)F)cc3)n2)c1` [Entry 33, N-[2-(2,5-dimethylphenyl)ethyl]-2-({[({4-[(trifluoromethyl)oxy]phenyl}oxy)acetyl]amino}methyl)-1,3-thiazole-4-carboxamide], the figure is 50 to 500 nM; as for `O=C(COc1ccc(OC(F)(F)F)cc1)NCc1nc(C(=O)NCCN2CCCCC2)cs1` [Entry 290, N-(2-piperidin-1-ylethyl)-2-({[({4-[(trifluoromethyl)oxy]phenyl}oxy)acetyl]amino}methyl)-1,3-thiazole-4-carboxamide], 500 to 2000 nM.
Next, `O=C(COc1ccc(OC(F)(F)F)cc1)NCc1nc(C(=O)NCCN2CCCC2)cs1` [Entry 274, N-(2-pyrrolidin-1-ylethyl)-2-({[({4-[(trifluoromethyl)oxy]phenyl}oxy)acetyl]amino}methyl)-1,3-thiazole-4-carboxamide]: 500 to 2000 nM; `CCCCNC(=O)c1csc(CNC(=O)COc2ccc(OC(F)(F)F)cc2)n1` [Entry 177, N-butyl-2-({[({4-[(trifluoromethyl)oxy]phenyl}oxy)acetyl]amino}methyl)-1,3-thiazole-4-carboxamide]: 50 to 500 nM.
Next, `Cc1ccc(Cl)cc1CNC(=O)c1csc(CNC(=O)COc2ccc(OC(F)(F)F)cc2)n1` [Entry 39, N-[(5-chloro-2-methylphenyl)methyl]-2-({[({4-[(trifluoromethyl)oxy]phenyl}oxy)acetyl]amino}methyl)-1,3-thiazole-4-carboxamide]: 50 to 500 nM; `Cc1ccc(CCNC(=O)c2coc(CNC(=O)COc3ccc(OC(F)(F)F)cc3)n2)cc1C` [Entry 211, N-[2-(3,4-dimethylphenyl)ethyl]-2-({[({4-[(trifluoromethyl)oxy]phenyl}oxy)acetyl]amino}methyl)-1,3-oxazole-4-carboxamide]: 50 to 500 nM.
With `O=C(COc1ccc(OC(F)(F)F)cc1)NCc1nc(C(=O)NCc2cc(Cl)cc(Cl)c2)cs1` [Entry 69, N-[(3,5-dichlorophenyl)methyl]-2-({[({4-[(trifluoromethyl)oxy]phenyl}oxy)acetyl]amino}methyl)-1,3-thiazole-4-carboxamide], the half-maximal inhibitory concentration (IC50) was in the range of 50 to 500 nM.
Take `CCc1ccc(NC(=O)NCc2nc(C(=O)NCCc3cccc(Cl)c3)cs2)cc1` [Entry 8, N-[2-(3-chlorophenyl)ethyl]-2-[({[(4-ethylphenyl)amino]carbonyl}amino)methyl]-1,3-thiazole-4-carboxamide]: the IC50 was below 50 nM.
As for `CO[C@@H]1[C@@H](C)/C=C(\C)[C@H](OC(N)=O)[C@@H](OC)/C=C\C=C(/C)C(=O)NC2=CC(=O)C=C(C2=O)[C@H](OC)[C@@H](C)C[C@H]1OC` [Entry 301, (4E,6Z,8S,9S,10E,12S,13R,14R,16S,17R)-4,10,12,16-tetramethyl-8,13,14,17-tetrakis(methyloxy)-3,20,22-trioxo-2-azabicyclo[16.3.1]docosa-1(21),4,6,10,18-pentaen-9-yl carbamate, reference compound], the figure is above 2000 nM; as for `C[C@@H]1[C@H]2C[C@@H](C[C@H]1NC(=O)c1csc(CNC(=O)COc3ccc(OC(F)(F)F)cc3)n1)C2(C)C` [Entry 88, 2-({[({4-[(trifluoromethyl)oxy]phenyl}oxy)acetyl]amino}methyl)-N-[(1R,2R,3R,5S)-2,6,6-trimethylbicyclo[3.1.1]hept-3-yl]-1,3-thiazole-4-carboxamide], 50 to 500 nM; as for `COc1cccc(CNC(=O)c2csc(CNC(=O)COc3ccc(OC(F)(F)F)cc3)n2)c1` [Entry 154, N-{[3-(methyloxy)phenyl]methyl}-2-({[({4-[(trifluoromethyl)oxy]phenyl}oxy)acetyl]amino}methyl)-1,3-thiazole-4-carboxamide], 50 to 500 nM.
As for `COc1cccc(CNC(=O)c2csc(CN)n2)c1OC` [Entry 303, 2-(aminomethyl)-N-{[2,3-bis(methyloxy)phenyl]methyl}-1,3-thiazole-4-carboxamide], the figure is above 2000 nM; as for `COc1ccccc1CNC(=O)c1coc(CNC(=O)COc2ccc(OC(F)(F)F)cc2)n1` [Entry 203, N-{[2-(methyloxy)phenyl]methyl}-2-({[({4-[(trifluoromethyl)oxy]phenyl}oxy)acetyl]amino}methyl)-1,3-oxazole-4-carboxamide], 50 to 500 nM.
As to `CC(C)CCC(C)NC(=O)c1csc(CNC(=O)COc2ccc(OC(F)(F)F)cc2)n1` (stereo not drawn) [Entry 262, N-(1,4-dimethylpentyl)-2-({[({4-[(trifluoromethyl)oxy]phenyl}oxy)acetyl]amino}methyl)-1,3-thiazole-4-carboxamide], the IC50 is 500 to 2000 nM.
As for `O=C(COc1ccc(OC(F)(F)F)cc1)NCc1nc(C(=O)NCCc2ccccn2)cs1` [Entry 77, N-(2-pyridin-2-ylethyl)-2-({[({4-[(trifluoromethyl)oxy]phenyl}oxy)acetyl]amino}methyl)-1,3-thiazole-4-carboxamide], the figure is 50 to 500 nM.
As for `CC1CCCN(C(=O)c2csc(CNC(=O)COc3ccc(OC(F)(F)F)cc3)n2)C1` (stereo not drawn) [Entry 289, N-({4-[(3-methylpiperidin-1-yl)carbonyl]-1,3-thiazol-2-yl}methyl)-2-({4-[(trifluoromethyl)oxy]phenyl}oxy)acetamide], the figure is 500 to 2000 nM.
As for `Cc1ccc(CNC(=O)c2csc(CNC(=O)COc3ccc(OC(F)(F)F)cc3)n2)cc1` [Entry 170, N-[(4-methylphenyl)methyl]-2-({[({4-[(trifluoromethyl)oxy]phenyl}oxy)acetyl]amino}methyl)-1,3-thiazole-4-carboxamide], the figure is 50 to 500 nM.
Regarding `C[C@@H]1[C@@H](NC(=O)c2coc(CNC(=O)COc3ccc(OC(F)(F)F)cc3)n2)C[C@H]2C[C@@H]1C2(C)C` [Entry 89, 2-({[({4-[(trifluoromethyl)oxy]phenyl}oxy)acetyl]amino}methyl)-N-[(1S,2S,3S,5R)-2,6,6-trimethylbicyclo[3.1.1]hept-3-yl]-1,3-oxazole-4-carboxamide], the IC50 lay in the range of 50 to 500 nM.
Next, `CCC(NC(=O)c1csc(CNC(=O)COc2ccc(OC(F)(F)F)cc2)n1)c1ccccc1` (stereo not drawn) [Entry 65, N-(1-phenylpropyl)-2-({[({4-[(trifluoromethyl)oxy]phenyl}oxy)acetyl]amino}methyl)-1,3-thiazole-4-carboxamide]: 50 to 500 nM; `CN1CCCC1CCNC(=O)c1csc(CNC(=O)COc2ccc(OC(F)(F)F)cc2)n1` (stereo not drawn) [Entry 247, N-[2-(1-methylpyrrolidin-2-yl)ethyl]-2-({[({4-[(trifluoromethyl)oxy]phenyl}oxy)acetyl]amino}methyl)-1,3-thiazole-4-carboxamide]: 500 to 2000 nM.
Consider `CCOc1cccc(CCNC(=O)c2coc(CNC(=O)COc3ccc(OC(F)(F)F)cc3)n2)c1` [Entry 230, N-{2-[3-(ethyloxy)phenyl]ethyl}-2-({[({4-[(trifluoromethyl)oxy]phenyl}oxy)acetyl]amino}methyl)-1,3-oxazole-4-carboxamide], for which the IC50 fell in the range of 500 to 2000 nM.
Next, `Cc1ccsc1CNC(=O)c1csc(CNC(=O)COc2ccc(OC(F)(F)F)cc2)n1` [Entry 133, N-[(3-methyl-2-thienyl)methyl]-2-({[({4-[(trifluoromethyl)oxy]phenyl}oxy)acetyl]amino}methyl)-1,3-thiazole-4-carboxamide]: 50 to 500 nM; `CCOc1ccc(NC(=O)NCc2nc(C(=O)NCCc3cccc(Cl)c3)cs2)cc1` [Entry 184, N-[2-(3-chlorophenyl)ethyl]-2-{[({[4-(ethyloxy)phenyl]amino}carbonyl)amino]methyl}-1,3-thiazole-4-carboxamide]: 50 to 500 nM.
As for `CCCC1CCN(C(=O)c2csc(CNC(=O)COc3ccc(OC(F)(F)F)cc3)n2)CC1` [Entry 245, N-({4-[(4-propylpiperidin-1-yl)carbonyl]-1,3-thiazol-2-yl}methyl)-2-({4-[(trifluoromethyl)oxy]phenyl}oxy)acetamide], the figure is 500 to 2000 nM.
As for `O=C(COc1ccc(OC(F)(F)F)cc1)NCc1nc(C(=O)N[C@@H](Cc2ccccc2)C(=O)N2CCCC2)cs1` [Entry 91, N-[(1S)-2-oxo-1-(phenylmethyl)-2-pyrrolidin-1-ylethyl]-2-({[({4-[(trifluoromethyl)oxy]phenyl}oxy)acetyl]amino}methyl)-1,3-thiazole-4-carboxamide], the figure is 50 to 500 nM.
